Test results reported in US12612416B2, “Modulators of cystic fibrosis transmembrane conductance regulator” (VERTEX PHARMACEUTICALS INCORPORATED, priority 2020, dated 2026).

Key:
[1] = target: CFTR (Homo sapiens, UniProt P13569); assay: standard Ussing Chamber Assay for CFTR potentiator activity; format: cell-based
Description: tert-Butyl N-[(6R,12R)-6-benzyloxy-12-methyl-6,15-bis(trifluoromethyl)-13,19-dioxa-3,4,18-triazatricyclo[12.3.1.12,5]nonadeca-1(18),2,4,14,16-pentaen-17-yl]-N-tert-butoxycarbonyl-carbamate (8.6 g, 11.77 mmol) was dissolved in ethanol (172 mL) then the flask was cycled 3 times between vacuum/nitrogen. Treated the mixture with 10% Pd/C (50% water wet, 1.8 g of 5% w/w, 0.8457 mmol) then cycled 3 times between vacuum/nitrogen and 3 times between vacuum/hydrogen and then stirred vigorously under hydrogen (balloon) at room temperature for 18 hours. The mixture was cycled 3 times between vacuum/nitrogen, filtered over Celite, washing with ethanol, and then the filtrate was evaporated to give 7.3 g of tert-butyl N-tert-butoxycarbonyl-N-[(6R,12R)-6-hydroxy-12-methyl-6,15-bis(trifluoromethyl)-13,19-dioxa-3,4,18-triazatricyclo[12.3.1.12,5]nonadeca-1(18),2,4,14,16-pentaen-17-yl]carbamate an off-white solid. 1H NMR and MS confirmed the expected product. CFTR modulating activity was confirmed using a standard Ussing Chamber Assay for CFTR potentiator activity.

[2] = target: T1, CFTR-mediated short-circuit current in F508del/MF-HBE cells (Homo sapiens, UniProt P13569, DEL508-508); assay: HBE2 assay: Ussing chamber assay of CFTR-mediated short-circuit currents; format: cell-based; settings: single fixed concentration 3 μM in combination with 44 nM (6R,12R)-17-amino-12-methyl-6,15-bis(trifluoromethyl)-13,19-dioxa-3,4,18-triazatricyclo[12.3.1.12,5]nonadeca-1(18),2,4,14,16-pentaen-6-ol, 20% human serum
T1 construct: endogenous in cells; host or cells: primary human bronchial epithelial cells from CF subjects (F508del/MF)
Description: Ussing chamber experiments were performed using human bronchial epithelial (HBE) cells derived from CF subjects heterozygous for F508del and a minimal function CFTR mutation (F508del/MF-HBE) and cultured as previously described (Neuberger T, Burton B, Clark H, Van Goor F Methods Mol Biol 2011:741:39-54). After four days the apical media was removed, and the cells were grown at an air liquid interface for >14 days prior to use.
To isolate the CFTR-mediated short-circuit (ISC) current, F508del/MF-HBE grown on Costar® Snapwell™ cell culture inserts were mounted in an Ussing chamber and the transepithelial ISC was measured under voltage-clamp recording conditions (Vhold=0 mV) at 37° C. The basolateral solution contained (in mM) 145 NaCl, 0.83K2HPO4, 3.3 KH2PO4, 1.2 MgCl2, 1.2 CaCl2), 10 Glucose, 10 HEPES (pH adjusted to 7.4 with NaOH) and the apical solution contained (in mM) 145 NaGluconate, 1.2 MgCl2, 1.2 CaCl2), 10 glucose, 10 HEPES (pH adjusted to 7.4 with NaOH) and 30 μM amiloride to block the epithelial sodium channel. […] The CFTR-mediated ISC (μA/cm^2) for each condition was determined from the peak forskolin response to the steady-state current following inhibition.
The activity of the CFTR corrector compounds on the CFTR-mediated ISC was determined in Ussing chamber studies as described above. […]

T1 sequence (P13569 with tags, fused parts or gaps DEL508-508): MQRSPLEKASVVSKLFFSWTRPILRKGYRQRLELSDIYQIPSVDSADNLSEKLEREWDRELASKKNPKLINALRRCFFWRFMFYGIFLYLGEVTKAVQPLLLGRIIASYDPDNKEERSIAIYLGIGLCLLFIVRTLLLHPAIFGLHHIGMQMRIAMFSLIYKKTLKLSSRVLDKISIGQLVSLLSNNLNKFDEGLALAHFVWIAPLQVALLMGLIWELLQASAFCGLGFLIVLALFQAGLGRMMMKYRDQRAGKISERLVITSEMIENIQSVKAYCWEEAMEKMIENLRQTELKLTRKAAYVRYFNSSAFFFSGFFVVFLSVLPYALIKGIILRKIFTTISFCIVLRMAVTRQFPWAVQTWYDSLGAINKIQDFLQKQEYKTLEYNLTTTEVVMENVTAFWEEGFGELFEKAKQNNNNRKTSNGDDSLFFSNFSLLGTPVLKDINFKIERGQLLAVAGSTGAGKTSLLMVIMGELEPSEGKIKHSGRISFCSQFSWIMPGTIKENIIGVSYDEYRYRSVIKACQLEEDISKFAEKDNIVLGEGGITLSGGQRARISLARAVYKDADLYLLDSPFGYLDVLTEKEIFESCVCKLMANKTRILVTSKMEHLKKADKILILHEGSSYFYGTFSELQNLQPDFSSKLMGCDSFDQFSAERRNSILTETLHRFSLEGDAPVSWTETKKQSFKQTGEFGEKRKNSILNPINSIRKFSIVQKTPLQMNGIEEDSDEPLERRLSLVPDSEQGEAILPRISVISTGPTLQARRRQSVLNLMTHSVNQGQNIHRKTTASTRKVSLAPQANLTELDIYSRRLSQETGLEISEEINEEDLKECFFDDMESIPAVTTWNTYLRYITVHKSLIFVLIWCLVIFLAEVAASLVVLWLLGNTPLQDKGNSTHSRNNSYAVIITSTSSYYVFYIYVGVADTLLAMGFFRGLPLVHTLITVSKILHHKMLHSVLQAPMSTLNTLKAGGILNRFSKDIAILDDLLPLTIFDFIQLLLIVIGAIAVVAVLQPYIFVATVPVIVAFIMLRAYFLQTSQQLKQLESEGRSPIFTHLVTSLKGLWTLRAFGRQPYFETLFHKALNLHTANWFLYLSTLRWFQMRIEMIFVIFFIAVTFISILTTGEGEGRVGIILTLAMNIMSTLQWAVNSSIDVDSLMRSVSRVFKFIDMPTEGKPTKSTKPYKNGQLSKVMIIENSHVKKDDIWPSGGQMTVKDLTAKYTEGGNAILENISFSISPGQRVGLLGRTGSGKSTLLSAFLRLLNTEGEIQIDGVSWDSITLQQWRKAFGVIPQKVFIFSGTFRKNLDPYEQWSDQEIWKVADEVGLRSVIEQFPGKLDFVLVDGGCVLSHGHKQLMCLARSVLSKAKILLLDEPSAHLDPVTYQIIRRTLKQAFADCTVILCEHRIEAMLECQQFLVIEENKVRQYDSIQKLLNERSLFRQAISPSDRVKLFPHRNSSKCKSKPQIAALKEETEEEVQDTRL
Chain of CFTR (P13569 whole entry, species assumed): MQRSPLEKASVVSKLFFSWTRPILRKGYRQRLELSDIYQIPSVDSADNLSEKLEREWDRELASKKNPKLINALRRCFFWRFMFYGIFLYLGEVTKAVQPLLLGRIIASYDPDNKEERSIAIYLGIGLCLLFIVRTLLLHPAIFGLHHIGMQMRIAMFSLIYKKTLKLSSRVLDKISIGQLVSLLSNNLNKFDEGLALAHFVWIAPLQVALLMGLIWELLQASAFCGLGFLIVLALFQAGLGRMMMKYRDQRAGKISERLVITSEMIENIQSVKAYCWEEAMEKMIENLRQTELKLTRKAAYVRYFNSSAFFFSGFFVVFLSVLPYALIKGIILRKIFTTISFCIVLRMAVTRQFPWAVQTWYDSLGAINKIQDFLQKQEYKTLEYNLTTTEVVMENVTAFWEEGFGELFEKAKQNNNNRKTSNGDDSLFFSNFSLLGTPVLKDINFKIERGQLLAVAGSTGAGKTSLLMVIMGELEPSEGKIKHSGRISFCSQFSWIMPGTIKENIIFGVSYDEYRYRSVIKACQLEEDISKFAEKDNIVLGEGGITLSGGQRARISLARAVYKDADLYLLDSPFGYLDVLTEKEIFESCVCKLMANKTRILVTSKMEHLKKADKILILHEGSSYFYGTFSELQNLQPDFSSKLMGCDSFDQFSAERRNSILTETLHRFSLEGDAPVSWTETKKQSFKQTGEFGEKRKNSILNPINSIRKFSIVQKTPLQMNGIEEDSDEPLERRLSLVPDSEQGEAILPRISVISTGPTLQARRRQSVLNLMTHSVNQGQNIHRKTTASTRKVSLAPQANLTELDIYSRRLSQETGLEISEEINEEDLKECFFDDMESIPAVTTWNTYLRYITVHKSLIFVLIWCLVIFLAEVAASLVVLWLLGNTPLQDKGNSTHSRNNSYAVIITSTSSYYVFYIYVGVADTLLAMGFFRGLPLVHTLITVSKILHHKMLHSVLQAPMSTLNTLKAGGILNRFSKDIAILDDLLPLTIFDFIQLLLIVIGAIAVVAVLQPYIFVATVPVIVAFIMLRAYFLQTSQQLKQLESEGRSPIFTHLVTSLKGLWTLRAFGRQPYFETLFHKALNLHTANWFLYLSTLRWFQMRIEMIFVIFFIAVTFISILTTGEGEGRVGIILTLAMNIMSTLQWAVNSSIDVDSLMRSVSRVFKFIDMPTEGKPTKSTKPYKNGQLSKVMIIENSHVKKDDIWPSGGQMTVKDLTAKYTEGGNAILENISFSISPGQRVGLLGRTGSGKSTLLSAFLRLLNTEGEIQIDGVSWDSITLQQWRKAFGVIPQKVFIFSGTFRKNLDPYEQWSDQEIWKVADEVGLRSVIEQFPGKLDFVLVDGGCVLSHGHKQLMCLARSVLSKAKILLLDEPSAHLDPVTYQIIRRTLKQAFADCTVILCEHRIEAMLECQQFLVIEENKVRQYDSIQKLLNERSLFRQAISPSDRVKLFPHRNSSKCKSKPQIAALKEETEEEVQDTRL

CFTR modulating activity (CFTR potentiator activity) [1]	HBE2 Activity at 3 μM [2]	SMILES
confirmed		C[C@@H]1CCCCC[C@](O)(C(F)(F)F)C2=NN=C(O2)c2nc(c(C(F)(F)F)cc2N)O1 [(6R,12R)-17-amino-12-methyl-6,15-bis(trifluoromethyl)-13,19-dioxa-3,4,18-triazatricyclo[12.3.1.12,5]nonadeca-1(18),2,4,14,16-pentaen-6-ol]
	+++ (+++ is >60%)	Cc1cccc(C)c1-c1cc2nc(n1)NS(=O)(=O)c1cccc(c1)C(=O)N(C1CC3(CC(NC(=O)OC(C)C)C3)C1)[C@H](CC(C)(C)C)CC2 (stereo partly drawn) [Compound 69]
	+++ (+++ is >60%)	Cc1cccc(C)c1-c1cc2nc(n1)NS(=O)(=O)c1cccc(c1)C(=O)N(Cc1cncc(N(C)C3CCC3)n1)[C@H](CC(C)(C)C)CC2 [Compound 72]
